In ChEMBL document CHEMBL4513101, “Naegleria gruberi Pathogen Box compounds screening” (2021):
The source made the active and inactive calls. Cut-off read from the data, not from the text of the source: active = inhibition of 80% or more and inactive = less.

Legend:
Naegleria gruberi [1] = settings: NEG-M, at 10 µM
Description: (§1) Growth inhibiting activity of Naegleria gruberi in vitro

Naegleria gruberi [2] = experiment: microbe, parasite or virus in culture; type: functional; settings: NEG-M, CONC 10 uM
Description: as §1

Compound | inhibition (Naegleria gruberi [1]) | inhibition at 10 µM (Naegleria gruberi [2])
MMV688978 | 60.5% | 
OC[C@H]1O[C@@H](n2c3ccc(Cl)cc3c3c(-c4cc5ccccc5o4)ncnc32)C(O)[C@H]1O (stereo partly specified) |  | 17.3% (not active)
O=S(=O)(c1ccc(Cl)cc1)N1CCN(C(=S)NCc2ccco2)CC1 |  | 38% (not active)
O=C(NCc1ccoc1)N1CCN(Cc2ccc3c(c2)OCO3)CC1 |  | 28.7% (not active)
CCCCc1ccc(NC(=O)Nc2ccc(O[C@H]3CCCC[C@@H]3N(C)c3ccccc3)c(F)c2)cc1 |  | 41.1% (not active)
c1ccc(-c2nc(NC3CCCCC3)cc(C3CC3)n2)nc1 |  | 23.7% (not active)
CCOc1ccc(-c2nc(CNCCc3ccc(F)cc3)cs2)cc1 |  | 42.4% (not active)
CC(=O)N1CCN(c2ccc(Oc3ccc(Cl)cc3O)cc2)CC1 |  | 0% (not active)
Cc1cc(OCC(=O)Nc2ccc(C(C)C)cc2)n(C)c(=O)c1C#N |  | 18.6% (not active)
CCCCOC(=O)Nc1cc2nc(C3CCCCC3)[nH]c2cc1N1CCCC1 |  | 64.3% (not active)
CCOC(=O)NC(=O)c1ccsc1NC(=O)c1nc2ccccc2s1 |  | 89.3% (active)
COc1cc(-c2cc(-c3ccc(S(C)(=O)=O)cc3)cnc2N)ccc1O |  | 67.8% (not active)
CC1=Nc2ccc(Cl)cc2C(c2ccccc2)N1CCNC(=O)CN(C)C (stereo unspecified) |  | 4.7% (not active)
O=C(Nc1ccnc(-c2cccnc2)n1)c1cc(C(F)(F)F)cc(C(F)(F)F)c1 |  | 44.3% (not active)
Cc1ccc(-c2cc(C(=O)Nc3cccnc3)c3cc(Br)ccc3n2)cc1 |  | 16.8% (not active)
Nc1ncc(-c2cn[nH]c2)cc1-c1nc2cc(Cl)cnc2[nH]1 |  | 10.2% (not active)

Compound | inhibition (Naegleria gruberi [1]) | inhibition at 10 µM (Naegleria gruberi [2])
CN1CCN(c2nccc3nc(-c4ccc(F)c(F)c4)[nH]c23)CC1 |  | 35% (not active)
COc1ccc(-c2cnc3cnc(-c4cccc(OC(C)C)c4)cn23)cc1 |  | 9.4% (not active)
O=C(NC1CC1)c1ccc(N2CCC(Cc3ccccc3)CC2)nc1 |  | 59.1% (not active)
N#Cc1nc(-c2ccccc2)oc1S(=O)(=O)c1ccc(Cl)cc1 |  | 9.4% (not active)
CCCNC(=O)N1CCC2(CC1)CC(=O)c1cc(C)ccc1O2 |  | 11.6% (not active)
Cc1ccc2nc(C)c(-c3ccn(Cc4ccccc4)n3)n2c1 |  | 9.5% (not active)
CCc1cc(=O)n(C)c(SC(C)C(=O)Nc2ccc(F)cc2)n1 (stereo unspecified) |  | 10.4% (not active)
Cc1[nH]c2ccccc2c1C(c1cccs1)N1CCN(C)CC1 (stereo unspecified) |  | 23.9% (not active)
FC(F)(F)c1ccc(N(c2cccnc2)C2CCN(c3ccc(C(F)(F)F)cn3)CC2)cc1 |  | 80.4% (active)
COC(=O)C1=C(C)NC(C)=C(C(=O)OC(C)C)C1c1cccc2nonc12 (stereo unspecified) [ISRADIPINE] |  | 48.7% (not active)
CO[C@H]1/C=C\O[C@@]2(C)Oc3c(C)c(O)c4c(O)c(/c(=C/NN5CCN(C)CC5)c(O)c4c3C2=O)=N\C(=O)/C(C)=C\C=C/[C@H](C)[C@H](O)[C@@H](C)[C@@H](O)[C@@H](C)[C@H](OC(C)=O)[C@@H]1C |  | 0% (not active)
Cc1cc(NC(=O)c2ccc(S(=O)(=O)N(Cc3ccccc3)C(C)C)cc2)no1 |  | 0% (not active)
CC(=O)N1CCc2cc3nc(C)cc(C)c3cc21 |  | 19.9% (not active)
COc1cccc(-c2cc3c(Nc4cccnc4)nccc3[nH]2)c1 |  | 10% (not active)
Nc1ncnc2c1ncn2C[C@@H](O)[C@@H](O)C(=O)O [ERITADENINE] |  | 36.3% (not active)
